Experimental findings from patent US5624924A, “Quinobenzothiazine antineoplastic agents” (priority 1994, dated 1997) are described below.

For experiment [1], the system named is A549 human lung cancer cell line. In words: In vitro cytotoxicity (MTT), A549. The experiment is classed as cell-based. The following applies: A549, 72 h. How it is done:
(§1) Metabolic activity was measured by the cells' ability to reduce the tetrazolium dye, 3-(4,5-dimethylthiazol-2-yl)-2,5-diphenyltetrazolium bromide (MTT), to a quantifiable colored formasan derivative. Surviving cells reduce the MTT dye. The inhibitory concentrations of killing 50% of the cells (IC50 s) were calculated. Testing was in accord with the following protocol:
(§2) Test compounds and a reference antineoplastic agent, ADRIAMYCIN (doxorubicin hydrochloride), were dissolved in dimethyl sulfoxide (DMSO) and diluted, first with Earle's Balanced Salt Solution, followed by culture medium, to twice the highest concentration of the compound to be tested. From this concentrated stock, two-fold serial dilutions were prepared in 96-well microtiter trays, each well containing twice the desired final concentration of the compound. Each concentration was tested in triplicate and compared to triplicate drug-free controls.
(§3) The cells were grown in the same medium used for diluting the compounds. Adherent cells were harvested by trypsinization according to the following procedure:
(§4) After harvesting by trypsinization, viable cell counts were determined and cell density was adjusted to 25,000 cells/mL. Inoculum (0.1 mL) was then added to each well for a final concentration of 2,500 cells per well. Addition of the inoculum was used to dilute the test compounds to the desired concentration.
(§5) Microtiter trays were incubated for three days at 36° C. in a humidified atmosphere containing 5% carbon dioxide.
(§6) After three days, 20 microliters of 5 mg/mL MTT in phosphate-buffered solution were added to each well of the microtiter trays. The microtiter trays were then returned to the incubator for two to four hours to allow the surviving cells to reduce the dye. After this incubation, both the medium and the unreduced dye were removed by aspiration. DMSO was added to each well to dissolve the water-insoluble, colored end product of the dye reduction for spectrophotometric measurement at 570 nm.
(§7) The results obtained which clearly show the cytotoxicity of the compounds of Examples 5, 6, 7 and 8 against […] tumor cell lines A549, HCT-8, HT-29 and P388-D1, are illustrated in Table 1. (A549 is a human lung cancer cell line; HCT-8 is a human colon cancer cell line; HT-29 is a human colon cancer cell line; and P388-D1 is a mouse leukemia cell line.)

Experiment [2] deals with HT-29 human colon cancer cell line. Kind of experiment: In vitro cytotoxicity (MTT), HT-29. The experiment is classed as cell-based. The following applies: HT-29, 72 h. How it is done: as §1, §2, §3, §4, §5, §6, §7
Experiment [3] has as its system P388-D1 mouse leukemia cell line. Kind of experiment: In vitro cytotoxicity (MTT), P388-D1. The following applies: Mus musculus, P388D1, 72 h, read-out: In Vitro Cytotoxicity (IC50), P388-D1. The experiment is classed as cell-based. How it is done: as §1, §2, §3, §4, §5, §6, §7
For experiment [4], the system named is C-26 colon adenocarcinoma. In words: In vivo activity against C-26 implanted intraperitoneally (Example 44). Details: species or system mouse. How it is done: (§8) The title compound of Example 37 above was tested against solid tumors in mice, using 1,3-bis(2-chloroethyl)-1-nitrosourea (BCNU) as a positive control. The tumor lines were M5076, an ovarian sarcoma implanted intraperitoneally (IP), and C-26, a colon adenocarcinoma, implanted intraperitoneally (IP) and subcutaneously (SC) in separate trials.
(§9) All drugs were administered in 5% aqueous dextrose or other suitable diluent. Drug efficacy was determined by prolonged survival times of the test animals or reduced tumor mass as compared to negative controls. Test groups consisted of 10 mice. Control groups consisted of 20 mice. Animals were of one sex and of similar weight. Prior to testing, the tumor cell lines were propagated in BALB/cj mice. Tumor implants were aliquots of a donor pool brei,
In the IP trials, the mean survival time (MST) of the groups of mice was determined, not counting animals surviving at the conclusion of the trial, and the mean lifespan comparison value of % MST(T/C) calculated, which value represents the ratio of treated to control group MST's expressed as a percentage.
For C-26 colon adenocarcinoma, the tumor was implanted into CD2 F1 mice, IP and SC in separate trials. For the C-26 IP trial, the tumor was implanted IP on day 0. The test compound were administered four times a day IP from day 1 to day 9 for a total of nine days. BCNU was administered four times a day on days 1, 5 and 9.

Experiment [5] deals with C-26 colon adenocarcinoma. In words: In vivo activity against C-26 implanted subcutaneously (Example 44). Details: species or system mouse. The following applies: 10 mg/kg, compound 37 days 1-9, BCNU days 1, 5, 9. How it is done:
as §8, §9
For the C-26 SC trial, the tumor was implanted SC into mice on day 0. The test compound was administered four times a day IP from day 1 to day 9 for a total of nine days. BCNU was administered four times a day on days 1, 5, and 9. The mean tumor masses were determined on day 11 and day 21, and the experiment terminated on day 60. The mean tumor mass (MTM) inhibition value of % MTM(T/C) was calculated, which value represents the ratio of treated to control group MTM's expressed as a percentage.

The test system of a further experiment is B16F10 mouse melanoma. In words: In vitro cytotoxicity (MTT), B16F10. The following applies: B16-F10, 72 h, read-out: In Vitro Cytotoxicity (IC50). The experiment is classed as cell-based. How it is done: as §1, §2, §3, §4, §5, §6
(§10) Compounds from Examples 4, 6, 8, 9 and 10 were additionally tested against human and murine tumor cell lines A549, HT-29, P388-D1, P388, P388-ADR(0.0), P388-ADR(0.1) and B16F109. (P388 is a mouse leukemia cell line similar to P388-D1, but animal-passaged; P388-ADR (0.0) is an ADRIAMYCIN-resistant variant of P388, the inoculum of which is grown in drug-free medium; P388-ADR (0.1) is an ADRIAMYCIN-resistant variant of P388, the inoculum of which is grown in medium with 0.1 mcg.ml ADRIAMYCIN; and B16F10 is a mouse melanoma.) The results are presented in Table 2; as shown in the table, the compounds of the present invention are effective cytotoxic agents even against the ADRIAMYCIN-resistant cell line P388-ADR.

Experiment [6] has as its system P388 mouse leukemia cell line. Kind of experiment: In vitro cytotoxicity (MTT), P388. The experiment is classed as cell-based. The following applies: P388, 72 h, read-out: In Vitro Cytotoxicity (IC50). As for the experimental part: as §1, §2, §3, §4, §5, §6, §10
The test system of experiment [7] is P388-ADR(0.0), ADRIAMYCIN-resistant variant of P388. In words: In vitro cytotoxicity (MTT), P388-ADR(0.0). The experiment is classed as cell-based. The following applies: Mus musculus, 72 h, inoculum grown in drug-free medium, Table 2. As for the experimental part:
as §1, §2, §3, §4, §5, §6, §10

The mark [8] stands for this setting: read-out: In Vitro Cytotoxicity (IC50), A549, Table 1, three day MTT assay.
Where [9] appears, read: read-out: In Vitro Cytotoxicity (IC50), HT-29, Table 1, three day MTT assay.
Where [10] appears, read: 10 mg/kg, compound 37 days 1-9, BCNU days 1, 5, 9.
Setting [11] is: read-out: In Vitro Cytotoxicity (IC50), A549, Table 2, ADR: average of two tests.
Where [12] appears, read: read-out: In Vitro Cytotoxicity (IC50), HT-29, Table 2, ADR: average of two tests.

Converted amounts (≈) assume the structure as drawn. Structures can show the parent of a compound that is named as a salt. Where two headings read alike, the source gives them in different places.

Turning to `CCOC(=O)c1cn2c3c(c(N4CCC(NC(C)=O)C4)c(F)cc3c1=O)Oc1cc(C)ccc1-2` (centres unmarked) [6, step 2, Ethyl 1-(3-acetamidopyrrolidin-1-yl)-2-fluoro-9-methyl-4-oxo-4H-quino[2,3,4-i,j][1,4]benzoxazine-5-carboxylate], the IC50 – broadly, the concentration that gives 50% inhibition – in experiment [1] (setting [8]) is 1.01 µg/mL (≈ 2.17 µM); in experiment [2] (setting [9]) it was 0.64 µg/mL (≈ 1.37 µM); in experiment [3] (Table 1, three day MTT assay) it was 0.65 µg/mL (≈ 1.4 µM).
In the case of `O=NN(CCCl)C(=O)NCCCl` [BCNU, 1,3-bis(2-chloroethyl)-1-nitrosourea, reference compound], in experiment [4] (setting [10]), the “% MST(T/C)” value is listed as 201% and the MST is 41.4. In experiment [4] (BCNU 10 mg/kg (footnote b)), the “test animals that survived the trial” value was “One of ten test animals survived the trial”. Further, in experiment [5] (day 11), the “% MTM(T/C)” value was 1% and the MTM was determined as 2 mg. In addition, in experiment [5] (day 21), the “% MTM(T/C)” value is 7% and the MTM was found to be 244 mg.
Regarding `Cc1ccc2c(c1)-n1cc(C(=O)O)c(=O)c3cc(F)c(N4CCC(N)C4)c(c31)O2` (centres unmarked) [Example 4, 1-(3-aminopyrrolidin-1-yl)-2-fluoro-8-methyl-4-oxo-4H-quino[2,3,4-i,j][1,4]benzoxazine-5-carboxylic acid hydrochloride], the IC50 in experiment [1] (setting [11]) is 0.122 µg/mL; in experiment [2] (setting [12]), 0.0431 µg/mL; in the experiment with B16F10 mouse melanoma it was 0.0221 µg/mL; in experiment [6], 0.0384 µg/mL; in experiment [7], 0.24 µg/mL.
For the compound `CCOC(=O)c1cn2c3c(c(N4CCC(NC(C)=O)C4)c(F)cc3c1=O)Oc1cc([N+](=O)[O-])ccc1-2` (centres unmarked) [Example 5, Ethyl 1-(3-acetamidopyrrolidin1-yl)-2-fluoro-9-nitro-4-oxo-4H-quino[2,3,4-i,j][1,4]benzoxazine-5-carboxylate], the IC50 worked out at 0.13 µg/mL (≈ 0.262 µM) in experiment [1] (setting [8]); 0.078 µg/mL (≈ 0.157 µM) in experiment [2] (setting [9]); 0.011 µg/mL (≈ 0.0222 µM) in experiment [3] (Table 1, three day MTT assay).
For `NC1CCN(c2c(F)cc3c(=O)c(C(=O)O)cn4c3c2Oc2cc(F)ccc2-4)C1` (centres unmarked) [Example 7, 1-(3-aminopyrrolidin-1-yl)-2,9-difluoro-4-oxo-4H-quino[2,3,4-i,j][1,4]benzoxazine-5-carboxylic acid hydrochloride], the IC50 came to 4.1 µg/mL in experiment [1] (setting [8]); 4.1 µg/mL in experiment [1] (setting [11]); 0.21 µg/mL in experiment [2] (setting [9]); 0.2 µg/mL in experiment [2] (setting [12]); 0.11 µg/mL in experiment [3] (Table 1, three day MTT assay); 0.11 µg/mL in experiment [3] (Table 2, ADR value marked *: single test).
As to `CCC[C@H](N)C(=O)NC1CCN(c2c(F)cc3c(=O)c(C(=O)O)cn4c3c2Oc2cc(C)ccc2-4)C1` (some centres unmarked) [Example 10, 1-(3-norvalylaminopyrrolidin-1-yl)-2-fluoro-9-methyl-4-oxo-4H-quino[2,3,4-i,j][1,4]benzoxazine-5-carboxylic acid hydrochloride], the IC50 worked out at 0.187 µg/mL in experiment [1] (setting [11]); 0.0875 µg/mL in experiment [2] (setting [12]); 0.0573 µg/mL with B16F10 mouse melanoma; 0.108 µg/mL in experiment [6]; 0.447 µg/mL in experiment [7].
As to `Cc1cc(C)c2c(c1)-n1cc(C(=O)O)c(=O)c3cc(F)c(N4CCC(N)C4)c(c31)O2` (centres unmarked) [Example 15, 1-(3-aminopyrrolidin-1-yl)-8,10-dimethyl-2-fluoro-4-oxo-4H-quino[2,3,4-i,j][1,4]benzoxazine-5-carboxylic acid hydrochloride], the IC50 in experiment [1] (setting [11]) was 0.034 µg/mL; in experiment [2] (setting [12]) it was 0.015 µg/mL; with B16F10 mouse melanoma, 0.015 µg/mL; in experiment [6], 0.012 µg/mL.
With `Cc1ccc2c(c1)Oc1c(N3CC[C@@H](N)C3)c(F)cc3c(=O)c(C(=O)O)cn-2c13` [Example 19, 1-((3R)-3-aminopyrrolidin-1-yl)-2-fluoro-9-methyl-4-oxo-4H-quino[2,3,4-i,j][1,4]benzoxazine-5-carboxylic acid hydrochloride], the IC50 in experiment [1] (setting [11]) was determined as 0.24 µg/mL; in experiment [2] (setting [12]), 0.052 µg/mL; in the experiment on B16F10 mouse melanoma it was 0.049 µg/mL; in experiment [6], 0.047 µg/mL.
Turning to `CC(C)(C)c1ccc2c(c1)-n1cc(C(=O)O)c(=O)c3cc(F)c(N4CCC(N)C4)c(c31)O2` (centres unmarked) [Example 21, 1-(3-aminopyrrolidin-1-yl)-8-t-butyl-2-flouro-4-oxo-4H-quino[2,3,4-i,j][1,4]benzoxazine-5-carboxylic acid hydrochloride], the IC50 in experiment [1] (setting [11]) stood at 0.247 µg/mL; in experiment [2] (setting [12]) it was 0.078 µg/mL; in the experiment with B16F10 mouse melanoma it was 0.045 µg/mL; in experiment [6] it was 0.063 µg/mL.
In the same order, the values of `NC1CCN(c2c(F)cc3c(=O)c(C(=O)Nc4ccc(F)cc4F)cn4c3c2Oc2ccccc2-4)C1` (centres unmarked) [Example 30, 1-(3-aminopyrrolidin-1-yl)-2-fluoro-4-oxo-4H-quino[2,3,4-i,j][1,4]benzoxazine-5-(N-2,4-difluorphenyl)carboxamide hydrochloride] are 4.1 µg/mL, 1.6 µg/mL, 1.3 µg/mL and 0.6 µg/mL.
The corresponding values for `NC1CCN(c2c(F)cc3c(=O)c(C(=O)O)cn4c3c2Oc2cc3c(cc2-4)OCO3)C1` (centres unmarked) [Example 32, 1(3-aminopyrrolidin-1-yl)-2-fluoro-8,9-methylenedioxy-4-oxo-4H-quino[2,3,4-i,j][1,4]benzoxazine-5-carboxylic acid hydrochloride] are 0.134 µg/mL, 0.042 µg/mL, 0.018 µg/mL and 0.022 µg/mL.
The corresponding values for `CCOC(=O)c1cn2c3c(c(N4CCC(N)C4)c(F)cc3c1=O)Oc1cc3c(cc1-2)OCO3` (centres unmarked) [Example 35, Ethyl 1-(3-aminopyrrolidin-1-yl)-2-fluoro-8,9-methylenedioxy-4-oxo-4H-quino[2,3,4-i,j][1,4]benzoxazine-5-carboxylate] are 0.26 µg/mL (≈ 0.573 µM), 0.093 µg/mL (≈ 0.205 µM), 0.077 µg/mL (≈ 0.17 µM) and 0.034 µg/mL (≈ 0.075 µM).
